Measured values taken from patent publication US12419890B2, “Administration of sumo-activating enzyme inhibitor and checkpoint inhibitors” (Takeda Pharmaceutical Company Limited, priority 2019, dated 2025).

What was measured:
[1] = test system: CT26 syngeneic mouse colon fibroblast carcinoma-derived subcutaneous tumor; assay: CT26 Study 1: mouse CT26 syngeneic tumor model, individual tumor volume; assay type: in vivo; conditions: Compound I-263a 7.5 mg/kg IV Day 1, 4; anti-mPD-1 10 mg/kg IP Day 1, 4, 8, 11; 8 mice/group
Method: CT26 Study 1: CT26 is a mouse colon fibroblast carcinoma cell line. CT26 mouse syngeneic tumor model was generated by subcutaneous inoculation with 0.2×10^6 CT-26 cells (cell suspension) in 12 weeks old female BALB/c mice (Jackson Laboratory, 600 Main St, Bar Harbor, ME) in the flank. When the mean tumor volume reached approximately 60 mm^3, the animals were randomized into one vehicle control and three treatment groups (n=8/group). Mice were then dosed with 20% HPbCD or Compound I-263a or anti-mouse PD-1 antibody over a 14-day period. Tumor growth and body weight were measured twice per week during the treatment and post-treatment periods, and mice were humanely euthanized once they had reached their humane endpoint.
(§1) Study 1: A 0.825 mg/mL stock solution of Compound I-263a was formulated weekly in 20% HPβCD and administered intravenously (IV) based on exact animal body weight on each day of treatment, using a dosing volume of 10 mL/kg body weight. Final doses received were 7.5 mg/kg. Dosing volume for Compound I-263a was 0.2 mL. […]
(§2) Tumors were measured twice weekly using vernier calipers. Tumor volumes were calculated using standard equation: V=W^2×L/2, where V=volume, W=width, and L=length for the tumor. […] Tumor size and body weight were measured twice a week for the duration of the study. […]

[2] = test system: WEHI-3 syngeneic mouse myelomonocytic leukemia-derived subcutaneous tumor; assay: WEHI-3 Study 4: mouse WEHI-3 syngeneic tumor model, individual tumor volume; assay type: in vivo; conditions: Compound I-263a 7.5 mg/kg IV BIWx3
Method: WEHI-3 Study 4: WEHI-3 is a mouse myelomonocytic leukemia cell line. WEHI-3 mouse syngeneic tumor model was generated by subcutaneous inoculation with 0.1×10^6 WEHI-3 cells (cell suspension) in 13 weeks old female BALB/c mice (Jackson Laboratory, 600 Main St, Bar Harbor, ME) in the flank. When the mean tumor volume reached approximately 50 mm^3, the animals were randomized into one vehicle control and five treatment groups (n=8/group). Mice were then dosed with 20% HPbCD or Compound I-263a or anti-mouse PD-1 antibody or anti-mouse CTLA-4 antibody over a 21-day period. Tumor growth and body weight were measured twice per week during the treatment and post-treatment periods, and mice were humanely euthanized once they had reached their humane endpoint.
as §1, with “4:” for “1:”, “1.01” for “0.825”
as §2

With Cc1sc(C(=O)c2cncnc2N[C@@H]2C[C@H](COS(N)(=O)=O)[C@@H](O)C2)cc1[C@@H]1NCCc2ccc(Cl)cc21 [Compound I-263a, [(1R,2S,4R)-4-{[5-({4-[(1R)-7-chloro-1,2,3,4-tetrahydroisoquinolin-1-yl]-5-methyl-2-thienyl}carbonyl)pyrimidin-4-yl]amino}-2-hydroxycyclopentyl]methyl sulfamate] the “tumor growth inhibition relative to vehicle-treated tumors” value [1] was “did not show any tumor growth inhibition”, the “effect on tumor growth” value ([2]; 8 tumors/group) was “very little effect” and the “slight tumor growth delays” value ([2]; delay to day 14, out of 8 implanted tumors) was 2.
